In PubChem BioAssay AID328 (DTP/NCI, 2004):
Values joined by “and” are separate entries in the source; they are usually repeats but may differ in a detail not shown here. Equal entries are not always repeated. Toxic doses and inconclusive results are not listed.

System: BDF1 mice, P388 leukemia ip, median survival T/C
Assay: NCI In Vivo Anticancer Drug Screen. Data for tumor model P388 Leukemia (intraperitoneal) in B6D2F1 (BDF1) mice
Conditions: endpoint: median survival time, higher = longer survival
Summary of the method: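 Steps: implant the tumour, treat one group with compound and another with vehicle, record survival, then divide treated by control.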

[1] = dose: 100.0 mg/kg/injection, schedule: Q04DX003 (ip), vehicle: saline with Tween-80
[2] = dose: 200.0 mg/kg/injection, schedule: Q04DX003 (ip), vehicle: saline with Tween-80
[3] = dose: 400.0 mg/kg/injection, schedule: Q04DX003 (ip), vehicle: saline with Tween-80
[4] = dose: 50.0 mg/kg/injection, schedule: Q01DX009 (ip), vehicle: saline with Tween-80
[5] = dose: 100.0 mg/kg/injection, schedule: Q01DX009 (ip), vehicle: saline with Tween-80
[6] = dose: 0.5 mg/kg/injection, schedule: Q01DX009 (ip), vehicle: Klucel (hydroxypropylcellulose) (HPC)
[7] = dose: 100.0 mg/kg/injection, schedule: Q04DX003 (ip), vehicle: saline sonified
[8] = dose: 200.0 mg/kg/injection, schedule: Q04DX003 (ip), vehicle: saline sonified

CCOC(=O)CCC(=O)CC(O)(C(F)(F)F)C(F)(F)Cl (stereo unspecified)
T/C [1]: 100 % of control | T/C [2]: 90 % of control | T/C [3]: 95 % of control

CC1(c2ccco2)C(=O)NC(=O)N1C(=O)CCl (stereo unspecified)
T/C [4]: 100 % of control | T/C [5]: 100 % of control | T/C [1]: 96 % of control | T/C [2]: 96 % of control

COc1ccc(C(C(N)=O)N2CCCC2)cc1 (stereo unspecified)
T/C [1]: 110 % of control | T/C [2]: 120 % of control | T/C [3]: 100 % of control

NC(N)=NCCCCCCC(=O)Nc1ccc(S(N)(=O)=O)cc1
T/C (dose: 25.0 mg/kg/injection, schedule: Q01DX009 (ip), vehicle: saline with Tween-80): 112 % of control | T/C [4]: 106 % of control | T/C [5]: 97 % of control

C=CC1CN2CCC1CC2C(O)c1ccnc2ccccc12 (stereo unspecified)
T/C (dose: 50.0 mg/kg/injection, schedule: Q04DX003 (ip), vehicle: saline with Tween-80): 102 % of control | T/C [1]: 88 % of control | T/C [2]: 107 % of control

COCC12CCC(OC)C34C5CC6(O)C(OC)CC(OC(C)=O)(C5C6OC(=O)c5ccccc5)C(C(OC)C13)C4N(C)C2 (stereo unspecified)
T/C (dose: 0.13 mg/kg/injection, schedule: Q01DX009 (ip), vehicle: Klucel (hydroxypropylcellulose) (HPC)): 93 % of control | T/C (dose: 0.25 mg/kg/injection, schedule: Q01DX009 (ip), vehicle: Klucel (hydroxypropylcellulose) (HPC)): 88 % of control | T/C [6]: 102 % of control | T/C (dose: 1.0 mg/kg/injection, schedule: Q01DX009 (ip), vehicle: Klucel (hydroxypropylcellulose) (HPC)): 102 % of control

CC(C)(O)C(Cl)(Cl)Cl
T/C (dose: 50.0 mg/kg/injection, schedule: Q04DX003 (ip), vehicle: saline): 115 % of control | T/C (dose: 100.0 mg/kg/injection, schedule: Q04DX003 (ip), vehicle: saline): 111 % of control | T/C (dose: 200.0 mg/kg/injection, schedule: Q04DX003 (ip), vehicle: saline): 107 % of control

CC(=O)Nc1ccc(OC(=O)Nc2ccc(C)c(NC(=O)Oc3ccc(NC(C)=O)cc3)c2)cc1
T/C (dose: 50.0 mg/kg/injection, schedule: Q01DX005 (ip), vehicle: saline with Tween-80): 96 % of control | T/C (dose: 100.0 mg/kg/injection, schedule: Q01DX005 (ip), vehicle: saline with Tween-80): 102 % of control | T/C (dose: 200.0 mg/kg/injection, schedule: Q01DX005 (ip), vehicle: saline with Tween-80): 119 % of control

CN=C(N)c1ccc(NC(=O)c2ccc(C(=O)Nc3ccc(C(N)=NC)cc3)cc2)cc1
T/C (dose: 15.0 mg/kg/injection, schedule: Q01DX010 (ip), vehicle: saline): 150 % of control and 160 % of control | T/C (dose: 30.0 mg/kg/injection, schedule: Q01DX010 (ip), vehicle: saline): 160 % of control and 175 % of control | T/C (dose: 60.0 mg/kg/injection, schedule: Q01DX010 (ip), vehicle: saline): 175 % of control and 180 % of control | T/C (dose: 120.0 mg/kg/injection, schedule: Q01DX010 (ip), vehicle: saline): 160 % of control

O=C1CC(c2ccc(OCN(CCCl)CCCl)cc2)CC(=O)C1CN(CCCl)CCCl (stereo unspecified)
T/C [6]: 124 % of control | T/C (dose: 4.0 mg/kg/injection, schedule: Q01DX009 (ip), vehicle: Klucel (hydroxypropylcellulose) (HPC)): 160 % of control

CCCCCCNP(=O)(N1CC1)N1CC1
T/C (dose: 16.5 mg/kg/injection, schedule: Q04DX003 (ip), vehicle: saline with Tween-80): 168 % of control | T/C (dose: 25.0 mg/kg/injection, schedule: Q04DX003 (ip), vehicle: saline with Tween-80): 227 % of control | T/C (dose: 37.5 mg/kg/injection, schedule: Q04DX003 (ip), vehicle: saline with Tween-80): 272 % of control

CSCCC1NC(=O)C(/C(C)=N\NC(N)=O)=C1O (stereo unspecified)
T/C [4]: 108 % of control | T/C [5]: 115 % of control | T/C (dose: 200.0 mg/kg/injection, schedule: Q01DX009 (ip), vehicle: saline with Tween-80): 92 % of control

CCCCCCCCCCCCCCCC(=O)N(CC#N)CC#N
T/C (dose: 100.0 mg/kg/injection, schedule: Q04DX003 (ip), vehicle: Klucel (hydroxypropylcellulose) (HPC)): 100 % of control | T/C (dose: 200.0 mg/kg/injection, schedule: Q04DX003 (ip), vehicle: Klucel (hydroxypropylcellulose) (HPC)): 100 % of control | T/C (dose: 400.0 mg/kg/injection, schedule: Q04DX003 (ip), vehicle: Klucel (hydroxypropylcellulose) (HPC)): 90 % of control

CS(=O)(=O)OCCCNCCCOS(C)(=O)=O
T/C (dose: 10.0 mg/kg/injection, schedule: Q01DX009 (ip), vehicle: saline): 228 % of control | T/C (dose: 10.0 mg/kg/injection, schedule: Q01DX010 (ip), vehicle: saline): 255 % of control | T/C (dose: 12.0 mg/kg/injection, schedule: Q04DX003 (ip), vehicle: saline): 186 % of control | T/C (dose: 19.0 mg/kg/injection, schedule: Q04DX003 (ip), vehicle: saline): 204 % of control | T/C (dose: 20.0 mg/kg/injection, schedule: Q01DX009 (ip), vehicle: saline): 255 % of control | T/C (dose: 20.0 mg/kg/injection, schedule: Q01DX010 (ip), vehicle: saline): 300 % of control | T/C (dose: 29.0 mg/kg/injection, schedule: Q04DX003 (ip), vehicle: saline): 209 % of control | T/C (dose: 40.0 mg/kg/injection, schedule: Q01DX009 (ip), vehicle: saline): 282 % of control | T/C (dose: 40.0 mg/kg/injection, schedule: Q01DX010 (ip), vehicle: saline): 300 % of control | T/C (dose: 45.0 mg/kg/injection, schedule: Q04DX003 (ip), vehicle: saline): 240 % of control | T/C (dose: 66.0 mg/kg/injection, schedule: Q04DX003 (ip), vehicle: saline): 245 % of control | T/C (dose: 80.0 mg/kg/injection, schedule: Q01DX010 (ip), vehicle: saline): 94 % of control | T/C (dose: 150.0 mg/kg/injection, schedule: Q04DX003 (ip), vehicle: saline): 300 % of control

CC1(C)NC(=O)N(CN2CCN(CN3C(=O)NC(C)(C)C3=O)CC2)C1=O
T/C [7]: 107 % of control | T/C [8]: 115 % of control | T/C (dose: 400.0 mg/kg/injection, schedule: Q04DX003 (ip), vehicle: saline sonified): 115 % of control

CCN(CC)CCNc1ccc(COC(=O)NC)c2sc3ccccc3c(=O)c12
T/C (dose: 6.25 mg/kg/injection, schedule: Q01DX009 (ip), vehicle: saline with Tween-80): 166 % of control

COC(=O)[C@@H]1[C@H](O)[C@H](C)[C@H](O)[C@@](C)(O)/C=C\C=C(C)C(=O)Nc2c(C)c(OC(C)=O)c3c(c2O)C(=O)C(C)=C2OCOC(=C23)C(C)=C[C@@](C)(O)[C@H](O)[C@@H](C)[C@H]1OC(C)=O
T/C (dose: 100.0 mg/kg/injection, schedule: Q01DX009 (ip), vehicle: Klucel (hydroxypropylcellulose) (HPC)): 93 % of control and 105 % of control | T/C (dose: 200.0 mg/kg/injection, schedule: Q01DX009 (ip), vehicle: Klucel (hydroxypropylcellulose) (HPC)): 120 % of control and 108 % of control | T/C (dose: 400.0 mg/kg/injection, schedule: Q01DX009 (ip), vehicle: Klucel (hydroxypropylcellulose) (HPC)): 121 % of control and 113 % of control | T/C (dose: 400.0 mg/kg/injection, schedule: Q01DX009 (ip), vehicle: saline): 90 % of control

CC1=C/C(=C/c2ccccc2)CC(C)(C)C1 (tested in a mixture with another compound)
T/C (dose: 25.0 mg/kg/injection, schedule: Q01DX009 (ip), vehicle: saline sonified): 104 % of control | T/C (dose: 50.0 mg/kg/injection, schedule: Q01DX009 (ip), vehicle: saline sonified): 100 % of control | T/C (dose: 100.0 mg/kg/injection, schedule: Q01DX009 (ip), vehicle: saline sonified): 100 % of control

CC1(C)N=C(N)N=C(N)N1NC(=O)c1cccc(Cl)c1
T/C (dose: 50.0 mg/kg/injection, schedule: Q04DX003 (ip), vehicle: saline sonified): 109 % of control | T/C [7]: 109 % of control | T/C [8]: 109 % of control

CC(=N\O)/C(C)=N/O.CC(=N\O)/C(C)=N/O.[Pd]
T/C (dose: 1.57 mg/kg/injection, schedule: Q01DX009 (ip), vehicle: Klucel (hydroxypropylcellulose) (HPC)): 100 % of control | T/C (dose: 3.13 mg/kg/injection, schedule: Q01DX009 (ip), vehicle: Klucel (hydroxypropylcellulose) (HPC)): 100 % of control | T/C (dose: 6.25 mg/kg/injection, schedule: Q01DX009 (ip), vehicle: Klucel (hydroxypropylcellulose) (HPC)): 100 % of control
